How the values were obtained:
[1] = test system: patients with severe, chronic periodontal disease; details: 6-week course of daily injections (20 mcg) from 3 days prior to surgery, with oral calcium and vitamin D; cited from earlier work
OVX rats = test system: OVX rats; parameters: species or system Sprague-Dawley rats; details: rat, in vivo
From the text: In this study, Sprague-Dawley rats were divided into three groups (Table 1) to study the impact of abaloparatide treatment on implant viability in rats in a model that mimics osteoporosis by ovariectomy (OVX).
At four months, rats in the OVX groups were ovariectomized, and bone depletion was allowed to occur for two months. At this point, daily injections of abaloparatide (Abalo) or vehicle (VEH) began 42 days prior to implant surgery and were continued out to 21 days past implant surgery.
As shown in FIGS. 2A-2C, 3A-3F, and 4A-4C, altered bone metabolism in the OVX rats and residual ridge defects complicated implant placement. […] However, abaloparatide did increase bone mass density in the femoral shaft and intact maxillac on the non-extraction side of the jaw (FIGS. 4A and 4B, respectively). With continued reference to FIGS. 4A and 4B, there was a 150% increase in mean BMD in OVX rats treated with ABL versus VEH.

relationship of unexpected healing complications after tooth extraction to treatment (OVX rats) | Structure (SMILES) | clinical outcomes relative to placebo during the year following periodontal surgery [1]
– | CC[C@H](C)[C@H](NC(=O)[C@H](CCC(=O)O)NC(=O)[C@H](CO)NC(=O)[C@@H](NC(=O)[C@@H](N)CO)C(C)C)C(=O)N[C@@H](CCC(N)=O)C(=O)N[C@@H](CC(C)C)C(=O)N[C@@H](CCSC)C(=O)N[C@@H](Cc1cnc[nH]1)C(=O)N[C@@H](CC(N)=O)C(=O)N[C@@H](CC(C)C)C(=O)NCC(=O)N[C@@H](CCCCN)C(=O)N[C@@H](Cc1cnc[nH]1)C(=O)N[C@@H](CC(C)C)C(=O)N[C@@H](CC(N)=O)C(=O)N[C@@H](CO)C(=O)N[C@@H](CCSC)C(=O)N[C@@H](CCC(=O)O)C(=O)N[C@@H](CCCN=C(N)N)C(=O)N[C@H](C(=O)N[C@@H](CCC(=O)O)C(=O)N[C@@H](Cc1c[nH]c2ccccc12)C(=O)N[C@@H](CC(C)C)C(=O)N[C@@H](CCCN=C(N)N)C(=O)N[C@@H](CCCCN)C(=O)N[C@@H](CCCCN)C(=O)N[C@@H](CC(C)C)C(=O)N[C@@H](CCC(N)=O)C(=O)N[C@@H](CC(=O)O)C(=O)N[C@H](C(=O)N[C@@H](Cc1cnc[nH]1)C(=O)N[C@@H](CC(N)=O)C(=O)N[C@@H](Cc1ccccc1)C(=O)O)C(C)C)C(C)C [Teriparatide] | improved clinical outcomes
no relationship | CC[C@H](C)[C@H](NC(=O)[C@H](CO)NC(=O)[C@H](CCCCN)NC(=O)CNC(=O)[C@H](CCCCN)NC(=O)[C@H](CC(=O)O)NC(=O)[C@H](Cc1cnc[nH]1)NC(=O)[C@H](CC(C)C)NC(=O)[C@H](CC(C)C)NC(=O)[C@H](CCC(N)=O)NC(=O)[C@H](Cc1cnc[nH]1)NC(=O)[C@H](CCC(=O)O)NC(=O)[C@H](CO)NC(=O)[C@@H](NC(=O)[C@H](C)N)C(C)C)C(=O)N[C@@H](CCC(N)=O)C(=O)N[C@@H](CC(=O)O)C(=O)N[C@@H](CC(C)C)C(=O)N[C@@H](CCCNC(=N)N)C(=O)N[C@@H](CCCNC(=N)N)C(=O)N[C@@H](CCCNC(=N)N)C(=O)N[C@@H](CCC(=O)O)C(=O)N[C@@H](CC(C)C)C(=O)N[C@@H](CC(C)C)C(=O)N[C@@H](CCC(=O)O)C(=O)N[C@@H](CCCCN)C(=O)N[C@@H](CC(C)C)C(=O)N[C@@H](CC(C)C)C(=O)NC(C)(C)C(=O)N[C@@H](CCCCN)C(=O)N[C@@H](CC(C)C)C(=O)N[C@@H](Cc1cnc[nH]1)C(=O)N[C@H](C(=O)N[C@@H](C)C(N)=O)[C@@H](C)O [abaloparatide, [Glu^22,25, Leu^23,28,31, Aib^29, Lys^26,30]hPTHrP(1-34)NH2] | –

— US20250090640A1, “METHOD OF IMPROVING THE VIABILITY OF A DENTAL IMPLANT” (priority 2023, published 2025)
